Assay results as given in publication PMC9936527, “Tandemly duplicated CYP82Ds catalyze 14-hydroxylation in triptolide biosynthesis and precursor production in Saccharomyces cerevisiae” (Nature Communications, 2023).

Tests used:
Type in all cases: biochemical, Tripterygium wilfordii
Conditions in all cases: NADPH with regenerating system, TwPOR3, Tris-HCl pH 7.5, 30 °C, 30 min; 14-hydroxylation
[1] = system: T1, CYP82D274; assay: yeast microsomes, product […] by GC-MS, Michaelis-Menten fit
T1 construct: full-length CYP cloned from root cDNA, coexpressed with TwPOR3 (pESC-LEU) in Saccharomyces cerevisiae BY4741; yeast microsomes; with NADPH--cytochrome P450 reductase

[2] = system: T1, CYP82D274; assay: yeast microsomes, product […] by LC-TQ-MS/MS, Michaelis-Menten fit
[3] = system: T2, CYP82D263; assay: as above
T2 construct: full-length CYP cloned from root cDNA, coexpressed with TwPOR3 (pESC-LEU) in Saccharomyces cerevisiae BY4741; yeast microsomes; with NADPH--cytochrome P450 reductase

Row | Compound | Km [1] | Km [2] | Km [3]
1 | CC(C)C1=CCC2=C(CC[C@H]3C(C)(C)CCC[C@]23C)C1 [compound 5, miltiradiene] | 47.3 ± 13 µM | – | –
2 | CC(C)c1ccc2c(c1)CC[C@H]1[C@](C)(C(=O)O)CCC[C@]21C [compound 7, dehydroabietic acid] | – | 0.99 ± 0.17 µM | 8.42 ± 1.89 µM
